Like-named read-outs stand apart in the source and are kept apart here.
Columns and labels:
IR-Grb14 interaction = molecular target: T1, IR-Grb14 interaction (Homo sapiens, UniProt P06213); assay: IR-Luc/Grb14-YFP BRET technique in a cell-free system; assay type: binding; conditions: for % BRET signal/DMSO control / remaining activity at 50 µM: insulin stimulation (100 nM)
T1 construct: a vector encoding the insulin receptor fused to the luciferase (IR-Luc); made in house; host or cells: HEK293T (transfected); IR-Luc was partially purified on wheat germ lectin sepharose; Grb14-YFP was used as crude lysate
Description: Compounds according to the invention were experimentally assessed for their inhibitory effect on the IR-Grb14 interaction by a BRET technique in a cell-free system described briefly below.
On the one hand, HEK293T cells were transfected with a vector encoding the insulin receptor fused to the luciferase (IR-Luc). Before lysis, the cells transfected with IR-Luc were stimulated or not with 100 nM insulin for 10 minutes. The IR-Luc lysates were recovered and then purified on sepharose beads coupled with wheat germ lectin (WGL for Wheat Germ Lectin). The IR-Luc receptors were then eluted and then frozen in liquid nitrogen before being stored at −80° C. On the other hand, HEK293T cells were transfected either with a vector encoding the Grb14 protein fused to the YFP (Grb14-YFP), or with the empty plasmid pcDNA3. The cells transfected with Grb14-YFP or with the empty plasmid pcDNA3 were lysed 48 h after transfection. After centrifugation, the lysates are recovered and frozen at −80° C.
The insulin receptors (IR-Luc) partially purified from cells stimulated or not with insulin were incubated for 20 minutes with the inhibitor compounds according to the invention suspended in DMSO. The cellular extracts from cells transfected with Grb14-YFP (or the empty plasmid pcDNA3) were then added and then after 40 minutes of incubation, coelenterazine was added and BRET reading was initiated. The results are expressed as a percentage of the BRET signal obtained in the presence of the molecules tested compared to the BRET signal of the DMSO control.

PI3K/Akt pathway = assay: Luc-Akt-PH/YFP-membrane BRET in HEK293T cells (recruitment of Akt to the membrane); assay type: cell-based; conditions: for effect on the recruitment of kinase Akt to the membrane: in the absence of the hormone
From the text: To measure the activity of the PI3-kinase pathway by the BRET technique, HEK293T cells are transfected with plasmids allowing, on the one hand, the expression of the PH (Pleckstrin Homology) domain of the Akt protein which has been fused to the luciferase and, on the other hand, a membrane-addressing sequence which has been fused to the YFP protein. When the PH domain of Akt is recruited to the membrane by the PIP3s, an energy transfer between the luciferase that is coupled to the PH domain of Akt and the membrane YFP protein takes place. The measured BRET signal is a control of the production of PIP3s at the membrane and is a reflection of the activation of the PI-3-kinase/Akt pathway in real time on cells.

[1] = system: PEPCK and G6Pase expression; assay: Expression of neoglucogenesis genes in hepatocytes in primary culture (RT-qPCR); assay type: cell-based, mice; conditions: 1 nM insulin; glucagon 10 nM
Description: FIG. 6, the effect of the compound of Formula (Ia) according to the invention (black bars) on the expression of insulin target genes, PEPCK (FIG. 6A) and G6Pase (FIG. 6B), involved in the neoglucogenesis pathway. Hepatocytes in primary culture are cultured for 8 h in the presence of compounds of Formula (Ia) (50 μM), insulin (1 nM) and glucagon (pre-incubation 1 h at 10 nM). The relative quantification of mRNAs is performed by RT-qPCR. The values are related to the quantification of the 18S gene in the same sample in order to normalize the results. The results are the average of 3 to 5 independent experiments (*p<0.05, **p<0.01, by Anova followed by a Newman-Keuls test).
To study the inhibitory effect of insulin on neoglucogenesis gene expression, hepatocytes from mice in primary culture were pre-incubated with 10 nM glucagon.

[2] = in the presence of insulin (5 nM)
[3] = read-out: % BRET signal/DMSO control, 50 μM

T1 sequence (P06213 763-1382 limits assumed): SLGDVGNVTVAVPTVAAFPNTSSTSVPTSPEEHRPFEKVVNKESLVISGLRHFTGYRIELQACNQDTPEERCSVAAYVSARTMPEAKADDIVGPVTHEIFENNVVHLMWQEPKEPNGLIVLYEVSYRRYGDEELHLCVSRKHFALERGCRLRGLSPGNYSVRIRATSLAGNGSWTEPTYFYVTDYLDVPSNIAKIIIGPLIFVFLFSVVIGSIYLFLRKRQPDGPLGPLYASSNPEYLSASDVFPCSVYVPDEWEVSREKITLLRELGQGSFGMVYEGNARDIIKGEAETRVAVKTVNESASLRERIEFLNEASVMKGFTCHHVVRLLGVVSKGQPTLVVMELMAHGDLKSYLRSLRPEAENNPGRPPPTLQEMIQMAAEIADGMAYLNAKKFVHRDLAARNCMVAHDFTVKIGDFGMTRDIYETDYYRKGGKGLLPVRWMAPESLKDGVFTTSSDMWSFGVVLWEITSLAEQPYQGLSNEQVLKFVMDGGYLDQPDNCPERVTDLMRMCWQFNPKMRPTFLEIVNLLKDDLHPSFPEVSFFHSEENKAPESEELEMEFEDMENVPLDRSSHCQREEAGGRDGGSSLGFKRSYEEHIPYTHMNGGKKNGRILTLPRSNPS
T1 sequence (P06213 28-758 partner limits assumed): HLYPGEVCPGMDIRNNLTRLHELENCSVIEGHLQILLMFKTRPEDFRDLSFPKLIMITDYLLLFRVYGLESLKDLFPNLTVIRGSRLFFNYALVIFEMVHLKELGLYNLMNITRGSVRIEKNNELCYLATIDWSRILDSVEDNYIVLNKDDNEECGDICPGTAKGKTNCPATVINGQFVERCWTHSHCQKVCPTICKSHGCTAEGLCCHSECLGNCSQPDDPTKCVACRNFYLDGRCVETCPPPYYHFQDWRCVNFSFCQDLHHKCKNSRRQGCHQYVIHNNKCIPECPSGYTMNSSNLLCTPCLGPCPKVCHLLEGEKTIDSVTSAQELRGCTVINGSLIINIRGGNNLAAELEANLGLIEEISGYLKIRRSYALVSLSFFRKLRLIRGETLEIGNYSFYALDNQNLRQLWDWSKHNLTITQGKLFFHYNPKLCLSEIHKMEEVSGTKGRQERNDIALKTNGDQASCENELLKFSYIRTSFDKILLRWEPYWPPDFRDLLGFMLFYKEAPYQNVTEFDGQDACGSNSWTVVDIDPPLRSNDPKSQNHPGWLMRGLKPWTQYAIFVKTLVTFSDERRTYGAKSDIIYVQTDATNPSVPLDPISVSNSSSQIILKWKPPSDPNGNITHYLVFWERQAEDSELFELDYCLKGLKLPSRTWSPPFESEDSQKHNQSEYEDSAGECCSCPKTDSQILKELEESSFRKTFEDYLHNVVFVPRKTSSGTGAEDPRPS

CCOc1cc(C=C2C(=O)NC(=O)NC2=O)ccc1OCc1cccc(C(=O)O)c1 [Comparative A]
significant decrease in the BRET signal / reduction in the IR-Grb14 interaction (in words) (IR-Grb14 interaction; 50 μM): do not allow for a significant decrease
% BRET signal/DMSO control (IR-Grb14 interaction; 50 μM): 103% (+/−15%)

Cc1noc(NS(=O)(=O)c2ccc(N)cc2)c1C [Comparative Va, 4-amino-N-(3,4-dimethyl-1,2-oxazol-5-yl)benzenesulfonamide, reference compound]
effect on the recruitment of kinase Akt to the membrane (PI3K/Akt pathway): no effect
BRET delta (PI3K/Akt pathway; [2]): −27 (+/−23)
effect on the production of PIP3s at the membrane (PI3K/Akt pathway; [2]): no effect
significant decrease in the BRET signal / reduction in the IR-Grb14 interaction (in words) (IR-Grb14 interaction; 50 μM): do not allow for a reduction
remaining activity at 50 µM (IR-Grb14 interaction; [3]): 98%

CCOc1cc(C=C2C(=O)NC(=O)NC2=O)ccc1OCc1cccc(C(=O)O)c1 [Comparative F]
significant decrease in the BRET signal / reduction in the IR-Grb14 interaction (in words) (IR-Grb14 interaction; 50 μM): do not allow for a significant decrease
% BRET signal/DMSO control (IR-Grb14 interaction; 50 μM): 93% (+/−24%)

CCOc1cc(C=C2C(=O)NC(=O)NC2=O)ccc1OCc1cccc(C(=O)O)c1 [Comparative C]
significant decrease in the BRET signal / reduction in the IR-Grb14 interaction (in words) (IR-Grb14 interaction; 50 μM): do not allow for a significant decrease
% BRET signal/DMSO control (IR-Grb14 interaction; 50 μM): 103% (+/−8%)

O=C1NC(=S)NC(=O)C1=Cc1ccc(OCc2cccc(C(=O)O)c2)cc1 [IId]
BRET delta (PI3K/Akt pathway; without insulin): 67 (+/−33)
remaining activity at 50 µM (IR-Grb14 interaction; [3]): 69%

CCc1ccc(/C=C/C(=O)Nc2ccc(S(=O)(=O)Nc3onc(C)c3C)cc2)o1 [Ib]
BRET delta (PI3K/Akt pathway; without insulin): 119 (+/−26)
remaining activity at 50 µM (IR-Grb14 interaction; 50 μM, read-out: % BRET signal/DMSO control): 58%

COc1cc(C=C2C(=O)NC(=S)NC2=O)ccc1OCc1cccc(C(=O)O)c1 [IIc]
decrease in the BRET signal between the insulin receptor and the Grb14 protein (IR-Grb14 interaction; 50 μM, with insulin stimulation): 25%
remaining activity at 50 µM (IR-Grb14 interaction; [3]): 75%

CCOc1cc(C=C2C(=O)NC(=O)NC2=O)ccc1OCc1cccc(C(=O)O)c1 [Comparative D]
significant decrease in the BRET signal / reduction in the IR-Grb14 interaction (in words) (IR-Grb14 interaction; 50 μM): do not allow for a significant decrease
% BRET signal/DMSO control (IR-Grb14 interaction; 50 μM): 121% (+/−8%)

insulin
effect on the recruitment of the Akt protein to the membrane after AG1024 (PI3K/Akt pathway; cells pre-incubated 1 h with 25 μM AG1024, Ia 50 μM, insulin 5 nM): no longer have any effect
BRET delta (PI3K/Akt pathway; insulin 5 nM alone): about 100
inhibition of glucagon-induced G6Pase expression [1]: 60 to 70%
inhibition of glucagon-induced PEPCK expression [1]: 60 to 70%

CC(C)(C)c1cc(C=C(C#N)C#N)cc(Br)c1O [AG1024, reference compound]
BRET signal after inhibition of tyrosine kinase activity of the insulin receptor (PI3K/Akt pathway; pre-incubation 1 h with 25 μM): very significant drop

Cc1ccc(/C=C/C(=O)O)o1 [Comparative IVa, (E)-3-(5-methylfuran-2-yl)acrylic acid, reference compound]
effect on the recruitment of kinase Akt to the membrane (PI3K/Akt pathway): no effect
BRET delta (PI3K/Akt pathway; [2]): −61 (+/−35)
reduction of the recruitment of the Akt protein to the membrane (PI3K/Akt pathway; [2]): about 50%
significant decrease in the BRET signal / reduction in the IR-Grb14 interaction (in words) (IR-Grb14 interaction; 50 μM): do not allow for a reduction
remaining activity at 50 µM (IR-Grb14 interaction; [3]): 91%

CCOc1cc(C=C2C(=O)NC(=S)NC2=O)ccc1OCc1ccc(C(=O)O)cc1 [IIe]
BRET delta (PI3K/Akt pathway; without insulin): 96 (+/−50)
remaining activity at 50 µM (IR-Grb14 interaction; [3]): 65%

CCOc1cc(C=C2C(=O)NC(=O)NC2=O)ccc1OCc1cccc(C(=O)O)c1 [Comparative E]
significant decrease in the BRET signal / reduction in the IR-Grb14 interaction (in words) (IR-Grb14 interaction; 50 μM): do not allow for a significant decrease
% BRET signal/DMSO control (IR-Grb14 interaction; 50 μM): 98% (+/−9%)

CCOc1ccc(/C=C2/C(=O)NC(=S)N(c3ccccc3)C2=O)cc1C(=O)O [IIf]
BRET delta (PI3K/Akt pathway; without insulin): 54 (+/−44)
remaining activity at 50 µM (IR-Grb14 interaction; [3]): 65%

CCOc1cc(C=C2C(=O)NC(=O)NC2=O)ccc1OCc1cccc(C(=O)O)c1 [Comparative B]
significant decrease in the BRET signal / reduction in the IR-Grb14 interaction (in words) (IR-Grb14 interaction; 50 μM): do not allow for a significant decrease
% BRET signal/DMSO control (IR-Grb14 interaction; 50 μM): 93% (+/−7%)

From US11020378B2, “Compounds, compositions and methods for treating insulin resistance” (UNIVERSITE PARIS DESCARTES, priority 2017, dated 2021)
